In patent US6489098B1, “Means and methods for monitoring nucleoside reverse transcriptase inhibitor antiretroviral therapy and guiding therapeutic decisions in the treatment of HIV/AIDS” (ViroLogic, Inc., priority 1998, dated 2002):
Several values for one entry are separate records, joined by “and”; a condition that tells them apart may be missing. Equal entries are not always repeated. Entries after “also recorded” stand apart in the source; their conditions may differ.

Tests used:
[1] = test system: HIV-1 RT mutant resistance test vector T69SSA; assay: Phenotypic susceptibility assay, site directed RTV T69SSA; type: cell-based; conditions: RTV with T69SSA vs wild type RTV; for Average fold reduction in susceptibility: 3 replicates
Procedure: (§1) Resistance tests were carried out with resistance test vectors using two host cell types. Resistance test vector viral particles were produced by a first host cell (the resistance test vector host cell) that was prepared by transfecting a packaging host cell with the resistance test vector and the packaging expression vector. The resistance test vector viral particles were then used to infect a second host cell (the target host cell) in which the expression of the indicator gene is measured.
(§2) The resistance test vectors containing a functional luciferase gene cassette were constructed and host cells were transfected with the resistance test vector DNA. The resistant test vectors contained patient-derived reverse transcriptase and protease sequences that were either susceptible or resistant to the antiretroviral agents, such as nucleoside reverse transcriptase inhibitors, non-nucleoside reverse transcriptase inhibitors and protease inhibitors. The resistance test vector viral particles produced by transfecting the resistance test vector DNA into host cells, either in the presence or absence of protease inhibitors, were used to infect target host cells grown either in the absence of NRTI or NNRTI or In the presence of increasing concentrations of the drug. The amount of luciferase activIty produced in infected target host cells in the presence of drug was compared to the amount of luciferase produced in infected target host cells in the absence of drug. Drug resistance was measured as the amount of drug required to inhibit by 50% the luciferase activity detected in the absence of drug (Inhibitory concentration 50%, IC50). The IC50 values were determined by plotting percent drug inhibition vs. log 10 drug concentration.
(§3) Host cells were seeded in 10-cm-diameter dishes and were transfected several days after plating with resistance test vector plasmid DNA and the envelope expression vector. Transfections were performed using a calcium-phosphate precipitation procedure. The cell culture media containing the DNA precipitate was replaced with fresh medium, from one to 24 hours, after transfection. Cell culture media containing resistance test vector viral particles was harvested one to four days after transfection and was passed through a […] filter before being stored at −80° C. HIV capsid protein (p24) levels in the harvested cell culture media were determined by an EIA method as described by the manufacturer (SIAC; Frederick, Md.). Before infection, target cells (293 and 293/T) were plated in cell culture media. Control infections were performed using cell culture media from mock transfections (no DNA) or transfections containing the resistance test vector plasmid DNA without the envelope expression plasmid. One to three or more days after infectIon the media was removed and cell lysis buffer (Promega) was added to each well. Cell lysates were assayed for luciferase activity (FIG. 3). The inhibitory effect of the drug was determined using the following equation:
(§4) % luciferase inhibition=1−(RLUluc[drug]÷RLUluc)×100
(§5) where RLUluc [drug] is the relative light unit of luciferase activity in infected cells in the presence of drug and RLUluc is the Relative Light Unit of luciferase activity in infected cells in the absence of drug. IC50 values were obtained from the sigmoidal curves that were generated from the data by plotting the percent inhibition of luciferase activity vs. the log 10 drug concentration. The drug inhibition curves are shown in (FIG. 3).
(§6) Genotypic changes that are observed to correlate with changes in phenotypic patterns of drug susceptibility are evaluated by construction of resistance test vectors containing the specific mutation on a defined, wild-type (drug susceptible) genetic background. Mutations may be incorporated alone and/or in combination with other known drug resistance mutations that are thought to modulate the susceptibility of HIV to a certain drug or class of drugs. […]

[2] = test system: HIV-1 RT mutant resistance test vector A62V; assay: Phenotypic susceptibility assay, site directed RTV A62V; type: cell-based; conditions: RTV with A62V vs wild type RTV; for Average fold reduction in susceptibility: 3 replicates
Procedure: as §1, §2, §3, §4, §5, §6

[3] = test system: patient RTV-621, RTV-285, RTV-690, RTV-770 and RTV-771 (T69SSA, T69SSG, T69SSS); assay: Phenotypic susceptibility assay, patient isolates with T69SSX mutations/insertions; type: cell-based, HIV-1; conditions: for susceptibility compared to wild-type control RTV: patient samples with insertions at 69
Procedure: In these experiments patient-derived segment(s) corresponding to the HIV protease and reverse transcriptase coding regions were either patient-derived segments amplified by the reverse transcription-polymerase chain reaction method (RT-PCR) using viral RNA isolated from viral particles present in the serum of HIV-infected individuals or were mutants of wild type HIV-1 made by site directed mutagenesis of a parental clone of resistance test vector DNA. Isolation of viral RNA was performed using standard procedures (e.g. RNAgents Total RNA Isolation System, Promega, Madison Wis. or RNAzol, Tel-Test, Friendswood, Tex.). The RT-PCR protocol was divided into two steps. A retroviral reverse transcriptase [e.g. Moloney MuLV reverse transcriptase (Roche Molecular Systems, Inc., Branchburg, N.J.), or avian myeloblastosis virus (AMV) reverse transcriptase, (Boehringer Mannheim, Indianapolis, Ind.)] was used to copy viral RNA into cDNA. The cDNA was then amplified using a thermostable DNA polymerase [e.g. Taq (Roche Molecular Systems, Inc., Branchburg, N.J.), Tth (Roche Molecular Systems, Inc., Branchburg, N.J.), PrimeZyme (isolated from Thermus brockianus, Biometra, Gottingen, Germany)] or a combination of thermostable polymerases as described for the performance of “long PCR” (Barnes, W. M., (1994) Proc. Natl. Acad. Sci, USA 91, 2216-2220) [e.g. Expand High Fidelity PCR System (Taq+Pwo), (Boehringer Mannheim. Indianapolis, Ind.) OR GeneAmp XL PCR kit (Tth+Vent), (Roche Molecular Systems, Inc., Branchburg, N.J.)].
Resistance test vectors incorporating the “test” patient-derived segments were constructed as described in PCT International Application No. PCT/US97/01609, filed Jan. 29, 1997 using an amplified DNA product of 1.5 kB prepared by RT-PCR using viral RNA as a template and oligonucleotides PDSApa (1) and PDSAge (2) as primers, followed by digestion with ApaI and AgeI or the isoschizimer PINAI. To ensure that the plasmid DNA corresponding to the resultant resistance test vector comprises a representative sample of the HIV viral quasi-species present in the serum of a given patient, many (>100) independent E. coli transformants obtained in the construction of a given resistance test vector were pooled and used for the preparation of plasmid DNA.
as §1
as §2, with “The IC50 values were determined by plotting percent drug inhibition vs. log 10 drug concentration.” left out

[4] = test system: HIV-1 RT mutant resistance test vector M41L-T69SSA-T215Y-RTV; assay: Phenotypic susceptibility assay, site directed RTV M41L+T69SSA+T215Y; type: cell-based; conditions: for Average fold reduction in susceptibility: RTV with 41 + 69 + 215 (M41L, T69SSA, T215Y), 2 replicates; for effect on susceptibility (words): RTV with M41L+T69SSA+T215Y
Procedure: as §1, §2, §3, §4, §5, §6

## Cc1cn([C@H]2C[C@H](N=[N+]=[N-])[C@@H](CO)O2)c(=O)[nH]c1=O [AZT, zidovudine]
[1]
  effect on susceptibility (words): small but significant change in susceptibility; also recorded: reduced AZT susceptibility slightly
  Average fold reduction in susceptibility: approximately two-fold and 1.98 fold
[2]
  effect on susceptibility (words): slight increases in susceptibility to AZT; also recorded: had no effect on AZT susceptibility; also recorded: had no affect on AZT susceptibility
  Average fold reduction in susceptibility: 1.25 fold
[3]
  susceptibility compared to wild-type control RTV: decreased susceptibility
[4]
  Average fold reduction in susceptibility: 160 fold and 140 fold and 141.71 fold
  effect on susceptibility (words): significant decrease in both d4T and AZT susceptibility

## Nc1ccn([C@H]2CC[C@@H](CO)O2)c(=O)n1 [ddC, zalcitabine]
[1]
  Average fold reduction in susceptibility: 1.55 fold
[2]
  Average fold reduction in susceptibility: 0.74 fold
[3]
  susceptibility compared to wild-type control RTV: decreased susceptibility
[4]
  Average fold reduction in susceptibility: 1.41 fold

## Cc1cn([C@H]2C=C[C@@H](CO)O2)c(=O)[nH]c1=O [d4T, stavudine]
[1]
  effect on susceptibility (words): did not reduce d4T susceptibility
  Average fold reduction in susceptibility: 2 fold and less than two-fold and 1.58 fold
[2]
  effect on susceptibility (words): no differences in their susceptibility to d4T; also recorded: did not reduce d4T susceptibility; also recorded: had no affect on d4T susceptibility
  Average fold reduction in susceptibility: 0.84 fold
[3]; four patient viruses with T69SSX mutations/insertions (FIG. 5)
  fold reduced susceptibility: 2-10 fold
[3]
  susceptibility compared to wild-type control RTV: decrease in susceptibility to d4T; also recorded: significant reduction in d4T susceptibility; also recorded: decreased susceptibility
[4]
  Average fold reduction in susceptibility: 5 fold and 5.20 fold
  effect on susceptibility (words): significant decrease in both d4T and AZT susceptibility

## O=c1[nH]cnc2c1ncn2[C@H]1CC[C@@H](CO)O1 [ddI, didanosine]
[1]
  Average fold reduction in susceptibility: 1.32 fold
[2]
  Average fold reduction in susceptibility: 0.84 fold
[3]
  susceptibility compared to wild-type control RTV: decreased susceptibility
[4]
  Average fold reduction in susceptibility: 2.02 fold

## Nc1nc(NC2CC2)c2ncn([C@H]3C=C[C@@H](CO)C3)c2n1 [ABC, abacavir]
[1]
  Average fold reduction in susceptibility: 2.52 fold
[2]
  Average fold reduction in susceptibility: 0.59 fold
[3]
  susceptibility compared to wild-type control RTV: decreased susceptibility
[4]
  Average fold reduction in susceptibility: 9.69 fold
